Measured values: PubChem BioAssay (NCI)
Where “and” joins values, the source holds several entries; their conditions need not be identical. Identical values can stand only once.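 Five compound concentrations were applied to cells in 96-well plates for 48 hours; endpoints were derived by simple linear interpolation of the resulting dose-response curve. Here, GI50 denotes the concentration required for 50% inhibition of growth. TGI: total growth inhibition.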

Tests used:
Assay in all cases: growth of human tumour cells (NCI), 48 h
[1] = tested on: UACC-257 melanoma
[2] = tested on: HL-60(TB) leukemia
[3] = tested on: HT29 colon
[4] = tested on: SNB-19 CNS
[5] = tested on: U251 CNS
[6] = tested on: IGROV1 ovarian
[7] = tested on: OVCAR-3 ovarian
[8] = tested on: COLO 205 colon
[9] = tested on: NCI-H522 lung
[10] = tested on: NCI-H460 lung

Structure (SMILES)	TGI [1] [µM]	TGI [2]	TGI [3] [µM]	TGI [4]	TGI [5] [µM]	TGI [6]	TGI [7] [µM]	TGI [8] [µM]	TGI [9] [µM]	TGI [10] [µM]	GI50 [1] [µM]	GI50 [3] [µM]	GI50 [4] [µM]	GI50 [5] [µM]	GI50 [6] [µM]	GI50 [7]	GI50 [8] [µM]	GI50 [9]	GI50 [10] [µM]	GI50 [2] [µM]
CCN1CCC(O)(/C=C/c2ccccc2)C(C(=O)/C=C/c2ccccc2)C1 (stereo not drawn)	4.55	4.08 µM	3.73	22.3 µM	6.67	3.78 µM	8.9	3.49	3.36	4.03	–	–	–	–	–	–	–	–	–	–
CCN(CC)CCNc1ccc([N+](=O)[O-])c2nc3ccc(OC)cc3c(N)c12	3.97	0.246 µM	1.42	3.29 µM	3.06	1.21 µM	3.55	1.65	0.551	2.67	–	–	–	–	–	–	–	–	–	–
O=C(N/N=C/c1ccc(N(CCCl)CCCl)cc1)c1ccc(C(=O)N/N=C/c2ccc(N(CCCl)CCCl)cc2)cc1	> 100	> 100 µM	> 100	> 100 µM	17.1	> 100 µM	> 100	> 100	> 100	> 100	> 100	0.801	38.6	0.346	20.7	19 µM	15.8	0.465 µM	0.038	–
C=C(CN1CCN(c2ccc(F)c(Cl)c2)CC1)c1ccc(C(=O)Nc2ccccc2N)cc1	47.3	4.31 µM	> 100	> 100 µM	23.7	7.86 µM	58.9	> 100	5.33	> 100	13.9	2.32	> 100	4.42	1.88	6.18 µM	> 100	1.8 µM	5.08	1.64
CN1CCN(c2nc3cc(F)ccc3n3cccc23)CC1	79	> 100 µM	87.6	> 100 µM	> 100	87.6 µM	> 100	> 100	> 100	43	–	–	–	–	–	–	–	–	–	–
Cc1c2ccccc2c(C)n2c1nc1cc(Cl)c(Cl)cc12	> 100	9.71 µM and 77.1 µM	> 100	> 100 µM	> 100	> 100 µM	–	> 100	80.3	> 100	> 100	31	> 100	34.6	8.62	18.6 µM	19.2	15.1 µM	27.4	17.5
Nc1ccn(C2CC3OCC3O2)c(=O)n1 (stereo not drawn)	> 100	> 100 µM	> 100	> 100 µM	> 100	> 100 µM	> 100	> 100	> 100	> 100	–	–	–	–	–	–	–	–	–	–
COC(=O)Nc1nc2ccc(C(=O)c3cccs3)cc2[nH]1	> 100	0.0753 µM and 0.415 µM	–	42.5 µM and > 100 µM	–	36.5 µM and > 100 µM	–	2.09	0.0606	–	> 100	0.0552	0.359	0.147	0.594	0.0192 µM and 0.0664 µM	–	0.0139 µM and 0.107 µM	0.239	0.0897
